Active and inactive are the calls of the source. No cut-off for these calls is given here. A value given as a limit tells only on which side of the number the result lay.

The test system of data set [1] is HeLa. The experiment in a line: Cytotoxicity against human HeLa cells after 48 hrs by MTT assay. Type of data set: functional, cell-based.
Data set [2] concerns SW480. In words: Cytotoxicity against human SW480 cells after 48 hrs by MTT assay. Format: functional, cell-based. As to conditions: SW480, 48 h.
Data set [3] deals with HepG2. In words: Cytotoxicity against human HepG2 cells after 48 hrs by MTT assay. Format: functional, cell-based. As to conditions: HepG2, 48 h.
The subject of data set [4] is HT-29. In words: Cytotoxicity against human HT-29 cells after 48 hrs by MTT assay. As to conditions: HT-29, 48 h. Type of data set: functional, cell-based. A general note: Tetrazolium dyes change colour on reduction, which living cells bring about.
For data set [5], the system named is HL-60. In words: Cytotoxicity against human HL60 cells after 48 hrs by MTT assay. Format: functional, cell-based. As to conditions: HL-60, 48 h.
Data set [6] relates to CCRF S-180. In words: Antitumor activity against mouse S180 cells allografted in ICR mouse assessed as tumor growth inhibition administered as po qd for 7 days measured 24 hrs after last dose. Format: functional.
In data set [7] the test system is CCRF S-180. In words: Antitumor activity against mouse S180 cells allografted in ICR mouse assessed as tumor growth inhibition at 4 umol/kg, po qd for 7 days measured 24 hrs after last dose. Format: functional, organism-based.
In data set [8] the test system is CCRF S-180. The experiment in a line: Antitumor activity against mouse S180 cells allografted in ICR mouse assessed as decrease of uPA levels in serum administered as po qd for 7 days measured 24 hrs after last dose. Type of data set: functional, organism-based.
Data set [9] has as its system HepG2. In words: Drug uptake in human HepG2 cells at 10^-10 M after 15 to 240 mins by fluorescence assay. Type of data set: ADME, cell-based. As to conditions: hepg2, 0.0001 µM.
Data set [10] relates to CCRF S-180. The experiment in a line: Antitumor activity against mouse S180 cells allografted in ICR mouse assessed as tumor growth inhibition at 2 umol/kg, ip qd for 7 days measured 24 hrs after last dose. Format: functional, organism-based.

On to `C[C@H](O)[C@H](NC(=O)[C@H](Cc1c[nH]c2ccccc12)NCC[C@H]1c2[nH]c3ccccc3c2C[C@H]2C(=O)N3CCC[C@H]3C(=O)N21)C(=O)OCc1ccccc1`, for which the IC50 – broadly, the point on the concentration scale where inhibition reaches its midpoint – is greater than 100 µM in data set [1]; greater than 100 µM in data set [2]; greater than 60 µM in data set [3]; greater than 20 µM in [4]; greater than 10 µM in data set [5]. Further, the MED in data set [6] amounted to 0.16 µmol/kg. In addition, in data set [6], the inhibition entry was “Dose-dependent effect”. Also, in data set [7], the inhibition result is “Active”. Further, the Activity entry in [8] is “Dose-dependent effect”. In addition, the Drug uptake result in data set [9] is on record as “Active”.
`COc1cccc2c1C(=O)c1c(O)c3c(c(O)c1C2=O)C[C@@](O)(C(=O)CO)C[C@@H]3O[C@H]1C[C@H](N)[C@H](O)[C@H](C)O1`: the inhibition entry in data set [10] is “Active”.

(Values after ChEMBL document CHEMBL3621055, “Mechanism of forming trimer, self-assembling nano-particle and inhibiting tumor growth of small molecule CIPPCT” (Medchemcomm, 2014).)
